According to PMC4741889, “Ligand-based chemoinformatic discovery of a novel small molecule inhibitor targeting CDC25 dual specificity phosphatases and displaying in vitro efficacy against melanoma cells” (Oncotarget, 2015):

What was measured:
[1] = tested on: A2058 cells; experiment: MTT cell growth rate, A2058 melanoma cells; assay type: cell-based, human; conditions: for cell growth rate: A2058, 100 μM
Description: (§1) The human melanoma cell line A2058, kindly provided by CEINGE (Naples, Italy), and SAN cells were derived from lymph nodal metastases and grown in DMEM and RPMI 1640, respectively, supplemented with 10% FBS, 2 mM L-glutamine, 100 IU/mL penicillin G, and 100 μg/mL streptomycin in humidified incubator at 37°C under 5% CO2 atmosphere. All cells were split and seeded every three days and used during the exponential phase of growth. Cell treatments were always carried after 24 h from plating.
(§2) The MTT assay was used to detect cell proliferation essentially as previously described. Briefly, A2058 and SAN cells were plated in 96-well microtiter plates (100 μL/well) at 4000 and 6000 cells/well, respectively. After 24-h seeding, cells were treated with the selected compounds added at 25, 50 or 100 μM concentration, or with 0.5% (v/v) DMSO as a vehicle control. After 24-h, 48-h or 72-h treatment, and upon the addition of 10 μL of MTT solution in the dark, the plate was incubated for 3 h at 37°C under CO2 atmosphere. After medium aspiration and solubilization of formazan crystals, absorbance was measured at 570 nm, using an ELISA plate reader (Bio-Rad, Milano, Italy).

[2] = target: T1, CDC25B (Homo sapiens, UniProt P30305); experiment: Ki from OMFP hydrolysis kinetics (Lineweaver-Burk), CDC25B; assay type: biochemical; conditions: 10 nM CDC25B, 1–25 μM OMFP; mean ± S.E.
T1 construct: Recombinant forms of the catalytic domains of CDC25A, -B and -C were obtained through the vectors pET28a-CDC25A-cd, pET28a-CDC25B-cd and pET28a-CDC25C-cd; made in house
T1 sequence (P30305 431-538 limits assumed): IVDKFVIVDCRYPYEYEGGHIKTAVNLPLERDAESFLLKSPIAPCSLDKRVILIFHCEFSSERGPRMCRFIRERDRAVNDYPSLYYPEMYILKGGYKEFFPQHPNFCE
Description: (§3) To measure the inhibition constant (Ki) of the recombinant forms of CDC25A, -B and -C towards the various inhibitors, the affinity of the different forms of CDC25 towards OMFP was measured either in the absence or in the presence of fixed concentrations of the various inhibitors. The reaction mixture contained 20 nM CDC25A, or 10 nM CDC25B, or 40 nM CDC25C, and different concentrations of the various inhibitors in 500 μL final volume of 20 mM Tris-HCl, pH 7.8, 1 mM DTT. DMSO was used as vehicle control. The reaction started by the addition of 1–25 μM OMFP, and the rate of OMFP hydrolysis was measured as indicated before. The corresponding Lineweaver-Burk plots allowed the calculation of the KM for OMFP and of the Vmax of OMFP hydrolysis, expressed as a.u./minmax. […] The Ki values were obtained from the decrease of a.u./minmax in the presence of the inhibitor, according to the equation a.u./mimmax’ = a.u./mimmax/{1 + ([I]/Ki)}, where a.u./mimmax’ represents the Vmax measured in the presence of the concentration [I] of the inhibitor. The Ki values were obtained from at least three independent experiments and reported as mean ± S.E.

[3] = tested on: A2058 cells; experiment: Cell cycle analysis by PI flow cytometry, A2058 cells; assay type: cell-based, human; conditions: A2058, 100 μM
Description: As CDC25 phosphatases are key cell cycle regulators, the effect of 7 on cell cycle progression was investigated in detail. To this aim, asynchronously growing A2058 and SAN cells were treated at different times with 100 μM compound 7, and then cell cycle analysis was cytofluorimetrically monitored after propidium iodide (PI) incorporation. […] After 16-h incubation with […], cells were mainly and almost equally distributed in G0/G1 and G2/M phases (the ratio between them being 0.96), whereas the cellular population in the S phase was essentially undetectable. […] A similar general picture emerged from the effect of compound 7 on cell cycle progression of SAN cells (Supplementary Figure S3).
Cells were seeded into 6-well plates at 3 × 10^5 cells/well for 24 h at 37°C; after the addition of 100 μM 7 or 0.5% DMSO as a vehicle control, the incubation of treated cells continued for 16 or 24 h. After each treatment, cells were harvested with trypsin, centrifuged and the pellet was resuspended in phosphate-buffered saline (PBS). For cell cycle analysis, cells were fixed with 70% (v/v) cold ethanol and stored at −20°C for 1 h. […] After incubation at 4°C for 30 min, cells were analyzed with a FACScan flow cytometer (Becton Dickinson) for evaluating the distribution in cell cycle phases or the presence of nuclei with a DNA content lower than the diploid.

[4] = target: T2, CDC25C (Homo sapiens, UniProt P30307); experiment: Ki from OMFP hydrolysis kinetics (Lineweaver-Burk), CDC25C; assay type: biochemical; conditions: 40 nM CDC25C, 1–25 μM OMFP; mean ± S.E.; read-out: Ki CDC25C
T2 construct: Recombinant forms of the catalytic domains of CDC25A, -B and -C were obtained through the vectors pET28a-CDC25A-cd, pET28a-CDC25B-cd and pET28a-CDC25C-cd; made in house
T2 sequence (P30307 321-428 limits assumed): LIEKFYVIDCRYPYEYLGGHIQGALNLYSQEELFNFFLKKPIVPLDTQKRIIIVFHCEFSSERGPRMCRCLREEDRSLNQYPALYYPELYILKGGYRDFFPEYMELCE
Description: as §3, with “The reaction started by the addition of 1–25 μM OMFP, and the rate of OMFP hydrolysis was measured as indicated before.” left out

[5] = tested on: SAN cells; experiment: MTT cell growth rate, SAN melanoma cells; assay type: cell-based, human; conditions: 100 μM, 48 h, MTT
Description: as §1, §2

Ki [2]: 780 ± 30 nM | Ki [4]: 3100 ± 220 nM
SMILES: O=C(O)C1CCCCC1c1c2ccc(=O)cc-2oc2cc(O)ccc12 (centres unmarked) [Compound 7, 2-(6-hydroxy-3-oxo-3H-xanthen-9-yl)cyclohexanecarboxylic acid]
cell growth rate ([1]; 48 h, MTT): significant reduction of the cell growth rate | cell growth rate ([1]; 72 h, MTT (data not shown)): significant reduction of cell growth rate | minimum concentration of inhibitor that caused an evident cytotoxic activity ([1]; A2058, 25, 50 or 100 μM tested, 48 h (Supplementary Figure S2)): 100 µM | ratio between G0/G1 and G2/M ([3]; 16 h, vehicle 0.96): 0.38 | ratio between G0/G1 and G2/M ([3]; 24 h, untreated 1.23): 0.45 | cell growth rate [5]: significant reduction of cell growth rate
